Experimental data taken from ChEMBL document CHEMBL5390219, “Benzyl stapled modification and anticancer activity of antimicrobial peptide A4K14-Citropin 1.1” (Bioorg Med Chem Lett, 2023).
pIC50: −log10 of the molar value. Activity calls are given as the source filed them. The rule behind the calls is not given here. *1 amine or outer side, *2 acyl side, *3 side chain or, on linkers, in order; H or OH if unused. Where a SMILES comes first, the peptide text is derived from it. Bridges are numbered along the chain shown (N, C = ends). Biphenyl(4,4'-CH2)2 = c1cc(-c2ccc(C[*:2])cc2)ccc1C[*:1]; mXylylene = c1cc(C[*:1])cc(C[*:2])c1; oXylylene = c1ccc(C[*:2])c(C[*:1])c1; pXylylene = c1cc(C[*:2])ccc1C[*:1]

Columns and labels:
HCT-116 = assay: Anti-cancer activity against human HCT-116 assessed as cell viability incubated for 48 hrs by CCK-8 assay; format: functional, cell-based; conditions: HCT-116, 48 h
MCF7 [1] = assay: Anti-cancer activity against human MCF7 assessed as cell viability incubated for 48 hrs by CCK-8 assay; format: functional, cell-based; conditions: MCF7, 48 h
U-87 MG = assay: Anti-cancer activity against human U-87 MG assessed as cell viability incubated for 48 hrs by CCK-8 assay; format: functional, cell-based, U-87MG ATCC
MCF7 [2] = assay: Induction of apoptosis in human MCF7 cells assessed as necrotic cells at 5 uM incubated for 24 hrs by Annexin V-FITC/PI staining based flow cytometry analysis (reference value: 1.94%); format: functional
[3] = Stability of a compound in human serum assessed as half life at 91 mg/mL incubated for 0 to 144 hrs by HPLC-UV analysis; format: ADME, cell-free; conditions: time 0-144 hrs
MCF7 [4] = assay: Induction of apoptosis in human MCF7 cells assessed as viable cells at 5 uM incubated for 24 hrs by Annexin V-FITC/PI staining based flow cytometry analysis (reference value: 93.51%); format: functional; conditions: read-out: Activity
MCF7 [5] = assay: Inhibition of cell migration in human MCF7 cells at 5 uM incubated for 24 hrs by scratch wound healing assay; format: functional, cell-based
MCF7 [6] = assay: Induction of cell death in human MCF7 cells assessed as reduction in number of viable cells at 10 uM incubated for 24 hrs by calcein-AM/PI staining based analysis; format: functional
MCF7 [7] = assay: Induction of apoptosis in human MCF7 cells assessed as late apoptotic cells at 5 uM incubated for 24 hrs by Annexin V-FITC/PI staining based flow cytometry analysis (reference value: 3.54%); format: functional
MCF7 [8] = assay: Induction of apoptosis in human MCF7 cells assessed as early apoptotic cells at 5 uM incubated for 24 hrs by Annexin V-FITC/PI staining based flow cytometry analysis (reference value: 1.01%); format: functional
MCF7 [9] = assay: Inhibition of cell migration in human MCF7 cells at 5 uM incubated for 36 hrs by crystal violet staining based microscopy analysis; format: functional
MCF7 [10] = assay: Induction of cell death in human MCF7 cells at 10 uM incubated for 24 hrs by calcein-AM/PI staining based analysis; format: functional

Compound	pIC50 (HCT-116)	pIC50 (MCF7 [1])	pIC50 (U-87 MG)	half-life at 91 mg/mL [3]	Activity (MCF7 [2])	viability at 5 µM (MCF7 [4])	Activity (MCF7 [5])	Activity (MCF7 [6])	Activity (MCF7 [7])	Activity (MCF7 [8])	Activity (MCF7 [9])	Activity (MCF7 [10])
CC[C@H](C)[C@@H]1NC(=O)[C@@H](NC(=O)[C@H](C)NC(=O)[C@H](Cc2ccccc2)NC(=O)[C@H](CC(C)C)NC(=O)CNC(C)=O)CSCc2ccc(cc2)CSC[C@@H](C(=O)N[C@@H](C)C(=O)N[C@@H](CO)C(=O)N[C@H](C(=O)N[C@H](C(=O)N[C@@H](CCCCN)C(=O)NCC(=O)N[C@@H](CC(C)C)C(N)=O)[C@@H](C)CC)C(C)C)NC(=O)[C@H](CCCCN)NC(=O)[C@H](CCCCN)NC1=O (Ac-GLFACIKKCASVIKGL-NH2; linker 5-9 via pXylylene)	4.89	4.93	4.89									
CC[C@H](C)[C@@H]1NC(=O)[C@@H](NC(=O)[C@H](C)NC(=O)[C@H](Cc2ccccc2)NC(=O)[C@H](CC(C)C)NC(=O)CNC(C)=O)CSCc2ccccc2CSC[C@@H](C(=O)N[C@@H](C)C(=O)N[C@@H](CO)C(=O)N[C@H](C(=O)N[C@H](C(=O)N[C@@H](CCCCN)C(=O)NCC(=O)N[C@@H](CC(C)C)C(N)=O)[C@@H](C)CC)C(C)C)NC(=O)[C@H](CCCCN)NC(=O)[C@H](CCCCN)NC1=O (Ac-GLFACIKKCASVIKGL-NH2; linker 5-9 via oXylylene)	5.30	5.56	5.55	143 h	1.35%	1.1%	Active	Active	75.52%	22.39%	Active	
CC(=O)NCC(=O)N[C@@H](CC(C)C)C(=O)N[C@@H](Cc1ccccc1)C(=O)N[C@@H](C)C(=O)N[C@H](C(=O)N[C@H]1CSCc2ccc(cc2)-c2ccc(cc2)CSC[C@@H](C(=O)N[C@@H](CCCCN)C(=O)NCC(=O)N[C@@H](CC(C)C)C(N)=O)NC(=O)[C@H](C(C)C)NC(=O)[C@H](CO)NC(=O)[C@H](C)NC(=O)[C@H](C(C)C)NC(=O)[C@H](CCCCN)NC(=O)[C@H](CCCCN)NC1=O)C(C)C (Ac-GLFAVCKKVASVCKGL-NH2; linker 6-13 via Biphenyl(4,4'-CH2)2)	5.13	5.13	5.04									
CC[C@H](C)[C@H](NC(=O)[C@@H](NC(=O)[C@H](CO)NC(=O)[C@H](C)NC(=O)[C@@H](NC(=O)[C@H](CCCCN)NC(=O)[C@H](CCCCN)NC(=O)[C@@H]1CSCc2cccc(c2)CSC[C@H](NC(=O)CNC(C)=O)C(=O)N[C@@H](Cc2ccccc2)C(=O)N[C@@H](C)C(=O)N[C@@H](C(C)C)C(=O)N1)C(C)C)C(C)C)C(=O)N[C@@H](CCCCN)C(=O)NCC(=O)N[C@@H](CC(C)C)C(N)=O (Ac-GCFAVCKKVASVIKGL-NH2; linker 2-6 via mXylylene)	3.98	4.26	4.24									
Ac-GLFAVIKKVASVIKGL-NH2	4.79	4.85	4.84	6.81 h	8.31%	77.5%			11.45%	2.44%	inactive	Active
CC[C@H](C)[C@H](NC(=O)[C@@H](NC(=O)[C@H](C)NC(=O)[C@H](Cc1ccccc1)NC(=O)[C@H](CC(C)C)NC(=O)CNC(C)=O)C(C)C)C(=O)N[C@@H](CCCCN)C(=O)N[C@@H](CCCCN)C(=O)N[C@H]1CSCc2cccc(c2)CSC[C@@H](C(=O)N[C@@H](CCCCN)C(=O)NCC(=O)N[C@@H](CC(C)C)C(N)=O)NC(=O)[C@H](C(C)C)NC(=O)[C@H](CO)NC(=O)[C@H](C)NC1=O (Ac-GLFAVIKKCASVCKGL-NH2; linker 9-13 via mXylylene)	4.96	5.08	4.97									
CC[C@H](C)[C@@H]1NC(=O)[C@@H](NC(=O)[C@H](C)NC(=O)[C@H](Cc2ccccc2)NC(=O)[C@H](CC(C)C)NC(=O)CNC(C)=O)CSCc2cccc(c2)CSC[C@@H](C(=O)N[C@@H](C)C(=O)N[C@@H](CO)C(=O)N[C@H](C(=O)N[C@H](C(=O)N[C@@H](CCCCN)C(=O)NCC(=O)N[C@@H](CC(C)C)C(N)=O)[C@@H](C)CC)C(C)C)NC(=O)[C@H](CCCCN)NC(=O)[C@H](CCCCN)NC1=O (Ac-GLFACIKKCASVIKGL-NH2; linker 5-9 via mXylylene)	5.08	5.03	4.93									
CC[C@H](C)[C@H](NC(=O)[C@@H](NC(=O)[C@H](CO)NC(=O)[C@@H]1CSCc2ccccc2CSC[C@H](NC(=O)[C@@H](NC(=O)[C@H](C)NC(=O)[C@H](Cc2ccccc2)NC(=O)[C@H](CC(C)C)NC(=O)CNC(C)=O)C(C)C)C(=O)N[C@@H](CCCCN)C(=O)N[C@@H](CCCCN)C(=O)N[C@@H](C(C)C)C(=O)N1)C(C)C)C(=O)N[C@@H](CCCCN)C(=O)NCC(=O)N[C@@H](CC(C)C)C(N)=O (Ac-GLFAVCKKVCSVIKGL-NH2; linker 6-10 via oXylylene)	5.23	5.18	5.20	143 h	3.9%	43.2%	Active	Active	37.02%	15.92%	Active	
CC[C@H](C)[C@H](NC(=O)[C@@H](NC(=O)[C@H](C)NC(=O)[C@H](Cc1ccccc1)NC(=O)[C@H](CC(C)C)NC(=O)CNC(C)=O)C(C)C)C(=O)N[C@@H](CCCCN)C(=O)N[C@@H](CCCCN)C(=O)N[C@H]1CSCc2ccccc2CSC[C@@H](C(=O)N[C@@H](CCCCN)C(=O)NCC(=O)N[C@@H](CC(C)C)C(N)=O)NC(=O)[C@H](C(C)C)NC(=O)[C@H](CO)NC(=O)[C@H](C)NC1=O (Ac-GLFAVIKKCASVCKGL-NH2; linker 9-13 via oXylylene)	5.10	5.06	5.07									
CC[C@H](C)[C@H](NC(=O)[C@@H](NC(=O)[C@H](CO)NC(=O)[C@H](C)NC(=O)[C@@H](NC(=O)[C@H](CCCCN)NC(=O)[C@H](CCCCN)NC(=O)[C@@H]1CSCc2ccc(cc2)CSC[C@H](NC(=O)CNC(C)=O)C(=O)N[C@@H](Cc2ccccc2)C(=O)N[C@@H](C)C(=O)N[C@@H](C(C)C)C(=O)N1)C(C)C)C(C)C)C(=O)N[C@@H](CCCCN)C(=O)NCC(=O)N[C@@H](CC(C)C)C(N)=O (Ac-GCFAVCKKVASVIKGL-NH2; linker 2-6 via pXylylene)	3.64	4.27	4.28									

Further lines, with some results ahead:

pIC50 (HCT-116)	pIC50 (MCF7 [1])	pIC50 (U-87 MG)	half-life at 91 mg/mL [3]	Compound	Activity (MCF7 [2])	viability at 5 µM (MCF7 [4])	Activity (MCF7 [5])	Activity (MCF7 [6])	Activity (MCF7 [7])	Activity (MCF7 [8])	Activity (MCF7 [9])	Activity (MCF7 [10])
3.94	4.49	4.59		CC[C@H](C)[C@H](NC(=O)[C@@H](NC(=O)[C@H](C)NC(=O)[C@H](Cc1ccccc1)NC(=O)[C@H](CC(C)C)NC(=O)CNC(C)=O)C(C)C)C(=O)N[C@@H](CCCCN)C(=O)N[C@@H](CCCCN)C(=O)N[C@H]1CSCc2ccc(cc2)CSC[C@@H](C(=O)N[C@@H](CCCCN)C(=O)NCC(=O)N[C@@H](CC(C)C)C(N)=O)NC(=O)[C@H](C(C)C)NC(=O)[C@H](CO)NC(=O)[C@H](C)NC1=O (Ac-GLFAVIKKCASVCKGL-NH2; linker 9-13 via pXylylene)								
4.86	4.90	4.94		CC[C@H](C)[C@H](NC(=O)[C@@H](NC(=O)[C@H](CO)NC(=O)[C@H](C)NC(=O)[C@@H](NC(=O)[C@H](CCCCN)NC(=O)[C@H](CCCCN)NC(=O)[C@@H]1CSCc2ccccc2CSC[C@H](NC(=O)CNC(C)=O)C(=O)N[C@@H](Cc2ccccc2)C(=O)N[C@@H](C)C(=O)N[C@@H](C(C)C)C(=O)N1)C(C)C)C(C)C)C(=O)N[C@@H](CCCCN)C(=O)NCC(=O)N[C@@H](CC(C)C)C(N)=O (Ac-GCFAVCKKVASVIKGL-NH2; linker 2-6 via oXylylene)								
4.98	4.87	4.84		CC[C@H](C)[C@H](NC(=O)[C@@H](NC(=O)[C@H](CO)NC(=O)[C@@H]1CSCc2cccc(c2)CSC[C@H](NC(=O)[C@@H](NC(=O)[C@H](C)NC(=O)[C@H](Cc2ccccc2)NC(=O)[C@H](CC(C)C)NC(=O)CNC(C)=O)C(C)C)C(=O)N[C@@H](CCCCN)C(=O)N[C@@H](CCCCN)C(=O)N[C@@H](C(C)C)C(=O)N1)C(C)C)C(=O)N[C@@H](CCCCN)C(=O)NCC(=O)N[C@@H](CC(C)C)C(N)=O (Ac-GLFAVCKKVCSVIKGL-NH2; linker 6-10 via mXylylene)								
4.87	4.80	4.81		CC[C@H](C)[C@H](NC(=O)[C@@H](NC(=O)[C@H](CO)NC(=O)[C@@H]1CSCc2ccc(cc2)CSC[C@H](NC(=O)[C@@H](NC(=O)[C@H](C)NC(=O)[C@H](Cc2ccccc2)NC(=O)[C@H](CC(C)C)NC(=O)CNC(C)=O)C(C)C)C(=O)N[C@@H](CCCCN)C(=O)N[C@@H](CCCCN)C(=O)N[C@@H](C(C)C)C(=O)N1)C(C)C)C(=O)N[C@@H](CCCCN)C(=O)NCC(=O)N[C@@H](CC(C)C)C(N)=O (Ac-GLFAVCKKVCSVIKGL-NH2; linker 6-10 via pXylylene)								
